Experimental findings from US8188048B2 (priority 2006, dated 2012) are described below.

This assay has as its system CCI-rats (chronic constriction injury of the sciatic nerve); tactile allodynia in ipsilateral hindpaw, antinociception in contralateral hindpaw. Also noted: species or system Sprague-Dawley rats. The following applies: rat, in vivo.

As to `CN1CC[C@]23c4c5ccc(O)c4O[C@H]2[C@@H](O)C=C[C@H]3[C@H]1C5.Cl` [Morphine, Morphine hydrochloride, reference compound], the ED10 was found to be 0.7 nmol; the ED20 was 3.5 nmol; the “time of peak antiallodynic and antinociceptive responses post-dosing” value was in the range of 0.5 to 0.75 h. The “dose-response at high i.t. doses” value (hydrochloride) is “pronounced sub-maximal ‘ceiling’ effect”.
